Data reported in US10017542B2, “Antimicrobial peptides and methods of use thereof” (priority 2015, dated 2018).
Where a SMILES comes first, the peptide text is derived from it. Where no end group is shown, it is not given here. [ ]: non-standard residue; d: D form. Orn = NCCC[C@H](N)C(=O)O

What was measured:
Pseudomonas aeruginosa = test: Killing of antibiotic resistant bacteria (FIG. 2); details: 1 hour time point after addition, single cell format
Staphylococcus aureus = test: Killing of antibiotic resistant bacteria (FIG. 2); details: 1 hour time point after addition, single cell format
Clostridium difficile = test: Killing of antibiotic resistant bacteria (FIG. 2); type: cell-based; details: 1 hour time point after addition, single cell format
[1] = system: S. aureus MRSA (G+) biofilm
Experimental: (§1) The Minimum Biofilm Eradication Concentration (MBEC) Assay was used. MBEC values provide estimates on the concentration of an antimicrobial product required to kill biofilm bacteria. The Calgary Biofilm Device (CBD) plate was used to effect biofilm formation on a lid containing 96 pegs. Bacterial cultures were grown and diluted in Tryptic Soy Broth (TSB) to approximately 1×10^7 CFU/mL before inoculation of the CBD plate, which was then incubated for 24 hr at 35° C. on a shaker at 125 rpm.
(§2) The peg lid containing biofilm was first rinsed in PBS to remove planktonic cells prior to treatment with 2-fold serial dilutions of test articles and control overnight at 35° C. The peg lid was rinsed in PBS twice before sonication in fresh media to disrupt biofilm adhered to the pegs. The plate was then incubated overnight to evaluate growth. Bacterial quantification was performed by measuring absorbance at 650 nm (A650). By definition, A650 reading of less than 0.1 indicates biofilm eradication.

B. thailandensis = details: concentration required to kill 50% of B. thailandensis; 10 mM phosphate buffer, 3 h, 37° C.
[2] = system: S. epidermis (G+) biofilm
Experimental: as §1, §2

[3] = system: P. aeruginosa (G−) biofilm
Experimental: as §1, §2

E. coli = details: 24 h
Experimental: (§3) Measurement of antimicrobial and anti-fungal activity was determined by a standard micrometer dilution method. Briefly, cells were grown overnight in media specified for each strain, and were diluted in the same media. Serial dilutions of the peptides were added to microtiter plates in a volume of 50 ul, followed by the addition of 50 ul of bacteria or fungi, 5×10^5 CFU/ml. Plates were incubated at 37 degrees for 24 hours and the Minimum Inhibitory Concentrations (MICs) were determined as the lowest peptide concentration that inhibited 50% of bacterial growth.

[4] = system: bacterial isolates of Table 7 (A. baumanii, E. coli, E. cloaca, Pseudomonas, Staphylococcus)
Experimental: (§4) Briefly, cells were grown overnight in media specified for each strain, and were diluted in the same media. Serial dilutions of the peptides were added to microtiter plates in a volume of 50 ul, followed by the addition of 50 ul of bacteria or fungi, 5×10^5 CFU/ml. Plates were incubated at 37 degrees for 24 hours and the Minimum Inhibitory Concentrations (MICs) were determined as the lowest peptide concentration that inhibited 50% of bacterial growth.

E. cloaca = details: 24 h
Experimental: as §3

C. krusei = details: 24 h
Experimental: as §3

[5] = system: fungal isolates of Table 8 (C. albicans, C. krusei, C. tropicalis)
Experimental: as §3

C. albicans = details: 24 h
Experimental: as §4

C. tropicalis = details: 24 h
Experimental: as §3

Experimental for A. baumanii (G−) biofilm: as §1, §2

| Molecule | killing of P. aeruginosa (Pseudomonas aeruginosa) | killing of C. difficile (Clostridium difficile) | Average MBEC (A. baumanii (G−) biofilm) [µM] | Average MBEC [1] [µM] | EC50 (B. thailandensis) [µM] | Average MBEC [2] [µM] | Average MBEC [3] [µM] | IC50 (C. krusei) [µM] | IC50 [5] [µM] | also measured |
| --- | --- | --- | --- | --- | --- | --- | --- | --- | --- | --- |
| CC[C@H](C)[C@H](NC(=O)[C@H](CS)NC(=O)[C@H](Cc1ccccc1)NC(=O)[C@H](CCCNC(=N)N)NC(=O)CNC(=O)[C@H](CC(C)C)NC(=O)[C@H](CS)NC(=O)[C@H](CC(C)C)NC(=O)[C@H](CCCCN)NC(=O)[C@H](C)NC(=O)[C@H](CCCNC(=N)N)NC(=O)[C@@H](NC(=O)[C@@H](N)CCCCN)[C@@H](C)CC)C(=O)N[C@@H](CCCNC(=N)N)C(=O)N[C@@H](C)C(=O)N[C@@H](CCCCN)C(=O)N[C@@H](CC(C)C)C(=O)N[C@@H](CCCNC(=N)N)C(=O)O [RP439, KIRAKLCLGRFCIRAKLR] (H-KIRAKLCLGRFCIRAKLR-OH) | effective in killing | effective in killing |  |  |  |  |  |  |  | killing of S. aureus (Staphylococcus aureus): effectively killed |
| C[C@H](NC(=O)[C@H](Cc1ccccc1)NC(=O)[C@H](C)NC(=O)[C@@H](N)Cc1ccccc1)C(=O)N[C@@H](Cc1ccccc1)C(=O)N[C@@H](CCCN)C(=O)N[C@@H](C)C(=O)N[C@@H](Cc1ccccc1)C(=O)N[C@@H](CCCN)C(=O)N[C@@H](CCCN)C(=O)N[C@@H](C)C(=O)N[C@@H](Cc1ccccc1)C(=O)N[C@@H](CCCN)C(=O)N[C@@H](CCCN)C(=O)N[C@@H](Cc1ccccc1)C(=O)N[C@@H](CCCN)C(=O)N[C@@H](CCCN)C(=O)N[C@@H](C)C(=O)N[C@@H](Cc1ccccc1)C(=O)N[C@@H](CCCN)C(=O)N[C@@H](CCCN)C(=O)N[C@@H](C)C(=O)N[C@@H](Cc1ccccc1)C(=O)O [RP443, FAFAFOAFOOAFOOFOOAFOOAF] (H-FAFAF[Orn]AF[Orn][Orn]AF[Orn][Orn]F[Orn][Orn]AF[Orn][Orn]AF-OH; N-terminus and C-terminus assumed) |  |  | 3.68 | 7.36 | 55.6 | 3.68 | 57.62 |  |  |  |
| C[C@H](NC(=O)[C@H](Cc1ccccc1)NC(=O)[C@H](C)NC(=O)[C@H](Cc1ccccc1)NC(=O)[C@H](CCCN)NC(=O)[C@H](C)NC(=O)[C@H](Cc1ccccc1)NC(=O)[C@H](CCCN)NC(=O)[C@H](CCCN)NC(=O)[C@H](C)NC(=O)[C@H](Cc1ccccc1)NC(=O)[C@H](CCCN)NC(=O)[C@H](CCCN)NC(=O)[C@H](Cc1ccccc1)NC(=O)[C@H](CCCN)NC(=O)[C@H](CCCN)NC(=O)[C@H](C)NC(=O)[C@H](Cc1ccccc1)NC(=O)[C@H](CCCN)NC(=O)[C@H](CCCN)NC(=O)[C@H](C)NC(=O)[C@@H](N)Cc1ccccc1)C(=O)N[C@@H](Cc1ccccc1)C(=O)O [RP444, FAOOFAOOFOOFAOOFAOFAFAF] (H-FA[Orn][Orn]FA[Orn][Orn]F[Orn][Orn]FA[Orn][Orn]FA[Orn]FAFAF-OH; N-terminus and C-terminus assumed) |  |  | 3.68 | 14.41 | 14.8 | 14.41 | 57.62 |  |  |  |
| CC[C@H](C)[C@H](NC(=O)[C@H](CCCNC(=N)N)NC(=O)[C@H](C)NC(=O)[C@H](CC(C)C)NC(=O)[C@H](CCCNC(=N)N)NC(=O)[C@@H](N)CS)C(=O)N[C@H](C(=O)N[C@@H](CS)C(=O)NCC(=O)NCC(=O)N[C@@H](Cc1ccccc1)C(=O)N[C@@H](C)C(=O)N[C@@H](CCCN)C(=O)N[C@@H](CCCN)C(=O)N[C@@H](Cc1ccccc1)C(=O)N[C@@H](C)C(=O)N[C@@H](CCCN)C(=O)N[C@@H](CCCN)C(=O)N[C@@H](Cc1ccccc1)C(=O)N[C@@H](CCCN)C(=O)N[C@@H](CCCN)C(=O)N[C@@H](Cc1ccccc1)C(=O)N[C@@H](C)C(=O)N[C@@H](CCCN)C(=O)N[C@@H](CCCN)C(=O)N[C@@H](Cc1ccccc1)C(=O)N[C@@H](C)C(=O)N[C@@H](CCCN)C(=O)N[C@@H](Cc1ccccc1)C(=O)N[C@@H](C)C(=O)N[C@@H](Cc1ccccc1)C(=O)N[C@@H](C)C(=O)N[C@@H](Cc1ccccc1)C(=O)O)C(C)C [RP501, CRLARIVCGGFAOOFAOOFOOFAOOFAOFAFAF] (H-CRLARIVCGGFA[Orn][Orn]FA[Orn][Orn]F[Orn][Orn]FA[Orn][Orn]FA[Orn]FAFAF-OH; N-terminus and C-terminus assumed) |  |  |  |  |  |  |  |  |  | IC50 (E. coli): 7.3 µM; IC50 [4]: 13.6 µM; IC50 (E. cloaca): 14.5 µM |
| CC[C@H](C)[C@H](NC(=O)CNC(=O)CNC(=O)[C@H](CS)NC(=O)[C@H](Cc1ccccc1)NC(=O)[C@H](CCCN)NC(=O)CNC(=O)[C@H](CC(C)C)NC(=O)[C@H](CS)NC(=O)CNC(=O)CNC(=O)[C@H](CC(C)C)NC(=O)[C@H](CCCN)NC(=O)[C@H](C)NC(=O)[C@H](CCCN)NC(=O)[C@@H](NC(=O)[C@H](CCCN)NC(=O)[C@@H](N)Cc1ccccc1)[C@@H](C)CC)C(=O)N[C@@H](CCCN)C(=O)N[C@@H](C)C(=O)N[C@@H](CCCN)C(=O)N[C@@H](CC(C)C)C(=O)N[C@@H](CCCN)C(=O)N[C@@H](Cc1ccccc1)C(=O)O [RP504, FOIOAOLGGCLGOFCGGIOAOLOF] (H-F[Orn]I[Orn]A[Orn]LGGCLG[Orn]FCGGI[Orn]A[Orn]L[Orn]F-OH; N-terminus and C-terminus assumed) |  |  |  |  |  |  |  | 2.7 | 23 | IC50 (E. coli): 10.8 µM; IC50 [4]: 17.6 µM; IC50 (C. albicans): 43.3 µM |
| CC[C@H](C)[C@H](NC(=O)[C@H](C)NC(=O)[C@H](CCCN)NC(=O)[C@H](CCCN)NC(=O)[C@H](CCCN)NC(=O)[C@@H](NC(=O)[C@H](CCCN)NC(=O)[C@H](CC(C)C)NC(=O)[C@H](CCCN)NC(=O)[C@H](CCCN)NC(=O)[C@H](CCCN)NC(=O)[C@H](CCCN)NC(=O)[C@H](C)NC(=O)[C@H](CCCN)NC(=O)[C@H](CO)NC(=O)[C@H](CC(C)C)NC(=O)[C@@H](NC(=O)[C@H](CCCCN)NC(=O)[C@H](CC(C)C)NC(=O)[C@H](CC(C)C)NC(=O)[C@H](CO)NC(=O)[C@H](CCCN)NC(=O)[C@H](CC(C)C)NC(=O)[C@@H](N)CCCN)[C@@H](C)O)[C@@H](C)O)C(=O)N[C@@H](CO)C(=O)N[C@@H](CCCN)C(=O)O [RP505, OLOSLLKTLSOAOOOOLOTOOOAISO] (H-[Orn]L[Orn]SLLKTLS[Orn]A[Orn][Orn][Orn][Orn]L[Orn]T[Orn][Orn][Orn]AIS[Orn]-OH; N-terminus and C-terminus assumed) |  |  |  |  |  |  |  | 17.5 | 13.2 | IC50 (C. tropicalis): 8.8 µM |
| C[C@H](N)C(=O)N[C@@H](Cc1ccccc1)C(=O)N[C@@H](C)C(=O)N[C@@H](Cc1ccccc1)C(=O)N[C@H](C(=O)N[C@@H](C)C(=O)N[C@@H](CCCN)C(=O)N[C@@H](CCCN)C(=O)N[C@@H](CCCN)C(=O)N[C@@H](Cc1ccccc1)C(=O)N[C@@H](C)C(=O)N[C@@H](CCCN)C(=O)N[C@@H](Cc1ccccc1)C(=O)N[C@@H](CCCN)C(=O)N[C@@H](C)C(=O)N[C@@H](CCCN)C(=O)N[C@@H](Cc1ccccc1)C(=O)N[C@@H](C)C(=O)N[C@@H](CC(N)=O)C(=O)N[C@@H](Cc1ccccc1)C(=O)N[C@@H](C)C(=O)N[C@@H](Cc1ccccc1)C(=O)N[C@@H](C)C(=O)NCC(=O)N[C@@H](Cc1ccccc1)C(=O)N[C@@H](CC(N)=O)C(=O)N[C@@H](C)C(=O)O)[C@@H](C)O [RP508, AFAFTAOOOFAOFOAOFANFAFAGFNA] (H-AFAFTA[Orn][Orn][Orn]FA[Orn]F[Orn]A[Orn]FANFAFAGFNA-OH; N-terminus and C-terminus assumed) |  |  |  |  |  |  |  | 38.3 | 46 | IC50 (C. albicans): 38.3 µM |
| CN[C@H](CC(C)C)C(=O)N[C@H]1C(=O)N[C@@H](CC(N)=O)C(=O)N[C@H]2C(=O)N[C@H]3C(=O)N[C@H](C(=O)N[C@H](C(=O)O)c4cc(O)cc(O)c4-c4cc3ccc4O)[C@H](O)c3ccc(c(Cl)c3)Oc3cc2cc(c3O[C@@H]2O[C@H](CO)[C@@H](O)[C@H](O)[C@H]2O[C@H]2C[C@](C)(N)[C@H](O)[C@H](C)O2)Oc2ccc(cc2Cl)[C@H]1O [vancomycin, reference compound] | not effective | not effective |  |  |  |  |  |  |  |  |
| CPGFAKKFAKKFKKFAKKFAKFAFAF [RP438] |  |  | 6.45 | 12.89 | 11.2 | 12.89 | 51.43 |  |  |  |
| FAFAFAFKKAFKKFKKAFKKAF [RP442] | effective in killing | effective in killing | 1.87 | 14.68 | 0.95 | 14.68 | 234.28 |  |  | killing of S. aureus (Staphylococcus aureus): effectively killed |
